Experimental findings from PubChem BioAssay (NCI) are described below.

Test in all cases: growth of human tumour cells (NCI), 48 h
The test system of experiment [1] is A498 renal.
Experiment [2] concerns A549 NSCLC.
Experiment [3] relates to HCT-116 colon.
The subject of experiment [4] is HL-60(TB) leukemia.
Experiment [5] deals with HOP-92 NSCLC.
Experiment [6] deals with NCI-H226 lung.
In experiment [7] the test system is OVCAR-3 ovarian.
In experiment [8] the test system is OVCAR-4 ovarian.
The test system of experiment [9] is SK-OV-3 ovarian.
Experiment [10] has as its system SNB-19 CNS.

Each structure is given as a SMILES string.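 Where inhibition never reached the appropriate level, the endpoint shown equals the highest concentration tested. Otherwise, values were interpolated linearly from a five-concentration, 48-hour dose response in 96-well plates. The concentration for 50% growth inhibition is given as GI50. TGI marks complete inhibition of growth.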 A value given as a limit tells only on which side of the number the result lay.

As for `CCCCCCC/C=C/[C@H]1O[C@]23C(=O)C[C@@]4(C[C@@H](OC5OC(CO)C(O)C(O)C5O)C[C@@H]4[C@H]2C=C1C)OC3=O` (stereo partly drawn), the GI50 in experiment [1] is 4.78 µM; in [2] it was 8.48 µM; in experiment [3], 1.68 µM; in experiment [4], 1.2 µM; in experiment [5] it was 3.77 µM; in [6], 5.85 µM. The GI50 in [7] is 2.28 µM; in experiment [8] it was 3.37 µM; in experiment [9], 7.13 µM; in experiment [10] it was 5.25 µM. Further, the TGI in [1] is 9.43 µM; in experiment [2], above 33.3 µM; in experiment [3] it was 6.03 µM; in [4], 7.53 µM; in experiment [5], 11.6 µM; in experiment [6], 13.4 µM. The TGI in [7] was 6.71 µM; in experiment [8], 8.07 µM; in [9] it was 21.6 µM; in experiment [10] it was 10.2 µM.

Take `CN1CCN(CCSC2Cc3cc(Cl)ccc3Sc3ccccc32)CC1` (stereo not drawn): the TGI in experiment [1] turned out to be 24.7 µM; in experiment [2] it was 13.2 µM; in [3], 15.3 µM; in experiment [4], 5.46 µM; in experiment [5] it was 12.4 µM; in experiment [6] it was 31.4 µM. Besides, the TGI turned out to be 16.5 µM in experiment [7], 18.2 µM in experiment [8], 32.5 µM in experiment [9] and 33.9 µM in experiment [10].

In the case of `COc1cc(-c2cnn(C)c2)ccc1Nc1ncc2ccnc(N[C@@H](C)C(C)(C)C)c2n1`, the GI50 in experiment [1] was above 100 µM; in experiment [2] it was above 45.5 µM; in experiment [3], 0.467 µM; in experiment [4], above 100 µM; in experiment [5], above 56.7 µM; in experiment [6] it was above 83.3 µM. For the same molecule, the GI50 in [7] is above 89.8 µM; in [8], above 46.8 µM; in experiment [9] it was above 68.1 µM; in experiment [10], above 82.3 µM. Further, the TGI in [1], in [2], in [3], in [4], in experiment [5] and in experiment [6] was above 100 µM in each case. The TGI in [7], in experiment [8], in experiment [9] and in experiment [10] was above 100 µM throughout.

Consider `CCOc1ccc(/C=C/C(=O)c2ccccc2)cc1`, for which the GI50 was 16.2 µM in [1]; 21.9 µM in experiment [2]; 12.9 µM in experiment [3]; 25 µM in experiment [4]; 19.6 µM in experiment [5]; 24.7 µM in experiment [6]. The GI50 in [7] is 15.5 µM; in [8], 21.5 µM; in [9], 21.5 µM; in [10] it was 16.8 µM. Besides, the TGI in [1] turned out to be 33.2 µM; in [2] it was 53.9 µM; in experiment [3], 27.4 µM; in [4], 94.5 µM; in experiment [5] it was 41.2 µM; in experiment [6], 75.2 µM. Besides, the TGI in [7] is 29.3 µM; in [8], 60.5 µM; in [9] it was 56 µM; in experiment [10], 34 µM.

Take `COc1ccc2c(c1)sc1nc(-c3ccccc3)c(-c3ccsc3)n12`: the GI50 is 6.26 µM in experiment [1]; 5.02 µM in experiment [2]; 4.18 µM in experiment [3]; 3.95 µM in experiment [4]; 9.89 µM in [5]; 2.17 µM in [6]. Besides, the GI50 is 2.15 µM in experiment [7], 3.7 µM in experiment [8], 3.48 µM in experiment [9] and 6.9 µM in experiment [10]. Besides, the TGI in experiment [1] is above 100 µM; in experiment [2] it was above 100 µM; in experiment [3], above 100 µM; in [4], 92.7 µM; in experiment [5] it was above 100 µM; in [6], 18.1 µM. Moreover, the TGI in experiment [7] is 5.37 µM; in experiment [8], above 100 µM; in experiment [9], 64.6 µM; in experiment [10], above 100 µM.

For `Cc1ccc(C(=O)c2oc3ccc4c(C)cc(=O)oc4c3c2C)cc1`, the GI50 was 10.1 µM in experiment [1]; 4.97 µM in [2]; 43.8 µM in experiment [3]; 13.4 µM in [4]; 27.1 µM in [5]; 11.7 µM in experiment [6]. Besides, the GI50 was 14.7 µM in [7], 23.6 µM in experiment [8], 18 µM in experiment [9] and 5.98 µM in experiment [10]. The TGI is above 100 µM in experiment [1]; above 100 µM in [2]; above 100 µM in experiment [3]; above 100 µM in experiment [4]; 95.2 µM in [5]; above 100 µM in [6]. Moreover, the TGI in [7] is 54.8 µM; in experiment [8] it was 75.5 µM; in experiment [9], above 100 µM; in experiment [10] it was above 100 µM.

On to `CC(C)c1ccc(Cc2cnc(NC(=O)c3cc(Br)cs3)s2)cc1`, for which the GI50 in experiment [1] was 0.242 µM; in [2], 3.65 µM; in experiment [3], 2.98 µM; in experiment [4], 3.6 µM; in [5], 5.51 µM; in experiment [6] it was 5.68 µM. The GI50 in experiment [7] was 2.75 µM; in experiment [8], 4.65 µM; in experiment [9], 6.06 µM; in experiment [10], 5.02 µM. For the same molecule, the TGI in experiment [1] was 4.67 µM; in experiment [2], above 100 µM; in experiment [3], above 100 µM; in experiment [4], above 100 µM; in [5] it was 87.5 µM; in experiment [6] it was above 100 µM. The TGI in experiment [7] was above 100 µM; in [8] it was above 100 µM; in experiment [9], 95.7 µM; in experiment [10], above 100 µM.

Take `C=CC(=O)N1CCCC(n2nc(-c3ccc(Oc4ccccc4)cc3)c3c(N)ncnc32)C1` (stereo not drawn): the GI50 was 0.124 µM in experiment [1]; 11.9 µM in experiment [2]; 11.9 µM in [3]; 21.9 µM in [4]; 1.57 µM in experiment [5]; 3.97 µM in experiment [6]. Moreover, the GI50 in [7] is 6.23 µM; in experiment [8], 7.12 µM; in experiment [9], 0.0216 µM; in experiment [10], 9.14 µM. For the same molecule, the TGI was 2.08 µM in [1]; 26 µM in [2]; 26.2 µM in [3]; 44.5 µM in experiment [4]; 10.5 µM in experiment [5]; 19.3 µM in [6]. The TGI in experiment [7] is 20.4 µM; in experiment [8], 21.2 µM; in [9], 15.8 µM; in experiment [10], 22.3 µM.

For `CCOc1ccccc1NC(=O)/C=C1\NC(=O)CS1`, the TGI in experiment [1], in [2], in experiment [3], in experiment [4], in experiment [5] and in experiment [6] was above 100 µM throughout. Besides, the TGI in experiment [7], in experiment [8], in experiment [9] and in [10] was above 100 µM in each case.

As to `COc1cc(OC)c(/C=C/c2ccc3ccccc3[n+]2C)c(OC)c1`, the GI50 in experiment [1] is 0.535 µM; in experiment [2], 0.748 µM; in experiment [3], 0.392 µM; in experiment [4] it was 0.363 µM; in [5], 0.951 µM; in [6], 1.42 µM. Also, the GI50 in [7] was 0.56 µM; in experiment [8] it was 0.659 µM; in experiment [9], 1.37 µM; in [10], 0.375 µM. For the same molecule, the TGI in experiment [1] stood at 5.42 µM; in [2], 13.9 µM; in experiment [3] it was 11.7 µM; in experiment [4], 2.92 µM; in [5] it was 4.51 µM; in experiment [6], 18.5 µM. In addition, the TGI in experiment [7] worked out at 3.9 µM; in experiment [8], 15.8 µM; in [9], 26 µM; in [10] it was 14.8 µM.

For `CN(C)CCNc1nc2ccccc2c2c1c1c(n2Cc2ccccc2)-c2ccccc2C1=O`, the GI50 is 14.1 µM in experiment [1]; 14.6 µM in [2]; 4.67 µM in [3]; 15.2 µM in experiment [4]; 6.19 µM in experiment [5]; 20.2 µM in experiment [6]. For the same molecule, the GI50 in experiment [7] was 17.2 µM; in experiment [8], 12.6 µM; in experiment [9], 20.3 µM; in [10] it was 16.4 µM. Further, the TGI in experiment [1] amounted to 28.9 µM; in experiment [2], 46.6 µM; in experiment [3] it was 25.2 µM; in experiment [4], 34.1 µM; in [5] it was 21.2 µM; in experiment [6], 50.3 µM. For the same molecule, the TGI was determined as 34.8 µM in [7], 27 µM in experiment [8], 45.1 µM in [9] and 33.8 µM in [10].

Regarding `O=C(Nc1ccccc1C(F)(F)F)c1cccc(NC2=C(Cl)C(=O)N(Cc3ccccc3)C2=O)c1`, the GI50 was 11.3 µM in [1]; 28.2 µM in [2]; 14.9 µM in experiment [3]; 31.8 µM in experiment [4]; 26.3 µM in experiment [5]; 15.4 µM in experiment [6]. Besides, the GI50 was 6.62 µM in experiment [7], 45.1 µM in experiment [8], 38.9 µM in [9] and 34 µM in [10]. Besides, the TGI in experiment [1] was 37 µM; in [2], above 77.8 µM; in experiment [3], above 55.1 µM; in experiment [4], above 100 µM; in [5] it was above 100 µM; in experiment [6], 52.9 µM. The TGI in experiment [7] is above 43.8 µM; in [8], above 100 µM; in [9], above 100 µM; in [10], above 100 µM.

Regarding `O=c1ccn(C2OC(CO)C(O)C2O)c(=O)[nH]1` (stereo not drawn), the TGI in experiment [1], in [2], in experiment [3], in experiment [4], in [5] and in experiment [6] was above 1000 µM in each case. Besides, the TGI in experiment [7], in experiment [8], in experiment [9] and in [10] was above 1000 µM throughout. For the same molecule, the GI50 in experiment [2], in [3], in [4], in experiment [5], in [7] and in experiment [8] was above 1000 µM each time. Also, the GI50 in experiment [9] and in experiment [10] was above 1000 µM in each case.

With `NC(=O)c1c[se]c(C2OC(CO)C(O)C2O)n1` (stereo not drawn), the TGI in experiment [1] was above 100 µM; in experiment [2] it was above 100 µM; in experiment [3], 55 µM; in [4], above 100 µM; in experiment [5] it was above 100 µM; in [6], above 100 µM. For the same molecule, the TGI in [7] was above 59 µM; in [8] it was above 100 µM; in experiment [9], above 100 µM; in experiment [10] it was above 100 µM.

With `Oc1ccc(N=Nc2ccc(Cl)cc2)cc1`, the TGI in [1] came out at 41 µM; in [2], 31.3 µM; in experiment [3] it was 29.4 µM; in experiment [4], 52.3 µM; in experiment [5] it was 29.2 µM; in [6], 35.6 µM. Moreover, the TGI in experiment [7] was determined as 55 µM; in experiment [8] it was 61 µM; in experiment [9] it was 47.3 µM; in experiment [10] it was 34.3 µM.

For the molecule `COc1ccc(-c2c(C3=NCCN3)nnn2-c2ccccc2)cc1`, the TGI in [1], in experiment [2], in [3], in experiment [4], in experiment [5] and in experiment [6] was above 100 µM throughout. The TGI in [7], in [8], in experiment [9] and in experiment [10] was above 100 µM throughout.

`CC1=C2C(O)C(C(C)CO)C(O)CC2(C)C(O)CC1` (stereo not drawn): the TGI in experiment [1], in experiment [2], in experiment [3], in experiment [4], in [5] and in experiment [6] was above 100 µM in each case. The TGI in experiment [7], in experiment [8], in experiment [9] and in experiment [10] was above 100 µM each time.

Consider `CC(=O)O/N=C/c1ncccc1CO`, for which the TGI in experiment [1], in experiment [2], in experiment [3], in experiment [4], in experiment [5] and in [6] was above 100 µM each time. Besides, the TGI in experiment [7], in [8], in experiment [9] and in [10] was above 100 µM throughout.
